# Test results from ChEMBL document CHEMBL3508693 (2016).
# Assays:
# [1] = Effect of single oral dose of 300 mg [14C]SPP100 on ECG values studied in healthy men; format: toxicity, organism-based; settings: human, in vivo
# [2] = Excretion (0-24h) of radioactivity in faeces following oral administration of [14C] aliskiren hemifumarate at 3 mg.Kg-1 level in marmoset; format: ADME, organism-based, Callithrix jacchus, Feces; settings: in vivo
# [3] = Excretion (24h) of radioactivity in urine following oral administration of [14C] aliskiren hemifumarate at 100 mg.Kg-1 level in rat; format: ADME, organism-based, Lister-Hooded; settings: in vivo
# [4] = Excretion (24h) of radioactivity in urine following intravenous administration of [14C] aliskiren hemifumarate at 10 mg.Kg-1 level in rat; format: ADME, organism-based, Lister-Hooded; settings: in vivo
# [5] = Mean excretion of radioactivity (24-48h) in urine and faeces following single intravenous dose of 10 mg.Kg-1 [14C] aliskiren hemifumarate in mouse; format: ADME, organism-based, TgRasH2, Urine/Feces; settings: in vivo
# [6] = Excretion of radioactivity (48-72h) in urine following single oral dose of 500 mg.Kg-1 [14C] aliskiren hemifumarate in mouse; format: ADME, organism-based, TgRasH2; settings: in vivo
# [7] = Excretion of radioactivity (0-72h) in faeces following single oral dose of 500 mg.Kg-1 [14C] aliskiren hemifumarate in mouse; format: ADME, organism-based, TgRasH2, Feces; settings: in vivo
# [8] = Cmax (0-96h) of total radioactivity following oral administration of [14C] aliskiren hemifumarate at 100 mg.Kg-1 level in rat; format: ADME, organism-based, Albino HAN:WIST, Plasma; settings: in vivo
# [9] = Cmax/dose (0-96h) of total radioactivity following oral administration of [14C] aliskiren hemifumarate at 100 mg.Kg-1 level in rat; format: ADME, organism-based, Albino HAN:WIST, Plasma; settings: in vivo
# Cytochrome P450 2D6 = Cytochrome P450 2D6 (Homo sapiens, UniProt P10635); assay: Involvement of CYP2D6 in the metabolism of [14C] aliskiren hemifumarate based on studies with microsomes from baculovirus-infected insect cells expressing recombinant human CYP450s and studies with pooled human liver microsomes from 22 donors; format: ADME, Microsome
# [10] = % of radioactivity (48h) recovered in cage wash of receiver rat following duodenal infusion of radioactivity through bile from donor rat treated with single intravenous administration of 10 mg.Kg-1 [14C] aliskiren hemifumarate; format: ADME, organism-based, HAN:WIST(SPF); settings: in vivo
# [11] = AUC/dose (0-96h) of total radioactivity following oral administration of [14C] aliskiren hemifumarate at 100 mg.Kg-1 level in rat; format: ADME, organism-based, Albino HAN:WIST, Plasma; settings: in vivo
# [12] = Elimination (0-96h) of radioactivity via biliary route following intravenous administration of [14C] aliskiren hemifumarate at 10 mg.Kg-1 level in rat; format: ADME, organism-based, Albino HAN:WIST, Bile; settings: in vivo
# [13] = Excretion of radioactivity (24-48h) in urine following single oral dose of 100 mg.Kg-1 [14C] aliskiren hemifumarate in rat; format: ADME, organism-based, Albino HAN:WIST; settings: in vivo
# Cytochrome P450 3A4 = Cytochrome P450 3A4 (Homo sapiens, UniProt P08684); assay: Metabolic clearance (ul.min.nmol-1 CYP) of aliskiren hemifumarate for CYP3A4 was determined in human liver microsome incubated with [14C]SPP100 hemifumarate; format: ADME; settings: microsomes
# [14] = Mean excretion of radioactivity (24-48h) in urine and faeces following single oral dose of 100 mg.Kg-1 [14C] aliskiren hemifumarate in rat; format: ADME, organism-based, Albino HAN:WIST, Urine/Feces; settings: in vivo
# [15] = Excretion of radioactivity (72-96h) in urine following single oral dose of 100 mg.Kg-1 [14C] aliskiren hemifumarate in rat; format: ADME, organism-based, Albino HAN:WIST; settings: in vivo
# [16] = Concentration of radioactivity in the colon wall following repeated oral administration of [14C] aliskiren hemifumarate at 100 mg.Kg-1 level studied at 24h after 10th dose in rat; format: ADME, organism-based, Albino HAN:WIST; settings: in vivo
# [17] = Concentration of radioactivity in the brown fat following repeated oral administration of [14C] aliskiren hemifumarate at 100 mg.Kg-1 level studied at 24h after 7th dose in rat; format: ADME, organism-based, Albino HAN:WIST, Brown adipose tissue; settings: in vivo
# hERG (KCNH2) = hERG (KCNH2) (Homo sapiens, UniProt Q12809); assay: Effects of 100 uM aliskiren hemifumarate on current through cloned hERG channel expressed in human embryonic kidney cell; format: cell-based; design: conc 100 uM, dose level Intermediate; settings: HEK293 cells that express cloned hERG channel, read-out: Inhibitory activity
# [18] = Effect of 2 week oral dosing of aliskiren hemifumarate at 50 mg.Kg-1 level on blood urea nitrogen level in female Callithrix jacchus; format: toxicity, organism-based, Plasma; settings: marmoset, 336 h
# [19] = Effect of 2 week oral dosing of aliskiren hemifumarate at 100 mg.Kg-1 level on blood urea nitrogen level in female Callithrix jacchus; format: toxicity, organism-based, Plasma; settings: marmoset, 336 h
# [20] = Cmax of aliskiren hemifumarate following 2 week oral dosing of aliskiren hemifumarate at 100 mg.Kg-1 level studied on day 14 in male Callithrix jacchus; format: ADME, organism-based; settings: marmoset, plasma
# [21] = Cmax of aliskiren hemifumarate following 2 week oral dosing of aliskiren hemifumarate at 100 mg.Kg-1 level studied on day 14 in female Callithrix jacchus; format: ADME, organism-based; settings: marmoset, plasma
# [22] = Cmaxspec of aliskiren hemifumarate following 2 week oral dosing of aliskiren hemifumarate at 10 mg.Kg-1 level studied on day 1 in female Callithrix jacchus; format: ADME, organism-based, Plasma; settings: marmoset, in vivo, 336 h
# [23] = Cmaxspec of aliskiren hemifumarate following 2 week oral dosing of aliskiren hemifumarate at 10 mg.Kg-1 level studied on […] in male Callithrix jacchus; format: ADME, organism-based, Plasma; settings: marmoset, in vivo, 336 h
# [24] = AUC/dose (0-96h) of unlabeled aliskiren hemifumarate following intravenous administration of aliskiren hemifumarate at 10 mg.Kg-1 level in rat; format: ADME, organism-based, Albino HAN:WIST, Plasma; settings: in vivo
# [25] = AUC (0-24h) of aliskiren hemifumarate following 4 week oral dietary dosing of aliskiren hemifumarate at 2000 mg.Kg-1 level in male mouse; format: ADME, organism-based; settings: CB6F1-TGrasH2, mouse, plasma
# [26] = Tmax of aliskiren hemifumarate following 2 week oral dosing of aliskiren hemifumarate at 100 mg.Kg-1 level studied on day 1 in female Callithrix jacchus; format: ADME, organism-based; settings: marmoset, plasma
# [27] = AUC(0-24h) of aliskiren hemifumarate following 2 week oral dosing of aliskiren hemifumarate at 100 mg.Kg-1 level studied on day 14 in male Callithrix jacchus; format: ADME, organism-based; settings: marmoset, plasma
# [28] = AUC (0-96 or 0-168h) of unlabeled aliskiren hemifumarate following single oral administration of aliskiren hemifumarate at 3 mg.Kg-1 level in marmoset; format: ADME, organism-based, Callithrix jacchus; settings: plasma
# [29] = % SPP100 recovered of receiver rat following duodenal infusion of radioactivity through bile from donor rat treated with single intravenous administration of 10 mg.Kg-1 [14C] aliskiren hemifumarate; format: ADME, organism-based, HAN:WIST(SPF); settings: in vivo
# CYP2E1 = CYP2E1 (Homo sapiens, UniProt P05181); assay: Inhibition of CYP2E1 in human liver microsomes from 10 healthy donors at 200 uM aliskiren (SPP100); format: ADME, Microsome; design: conc 200 uM; settings: probe chlorzoxazone (6-hydroxylation)
# CYP2E1, sequence (P05181 whole entry): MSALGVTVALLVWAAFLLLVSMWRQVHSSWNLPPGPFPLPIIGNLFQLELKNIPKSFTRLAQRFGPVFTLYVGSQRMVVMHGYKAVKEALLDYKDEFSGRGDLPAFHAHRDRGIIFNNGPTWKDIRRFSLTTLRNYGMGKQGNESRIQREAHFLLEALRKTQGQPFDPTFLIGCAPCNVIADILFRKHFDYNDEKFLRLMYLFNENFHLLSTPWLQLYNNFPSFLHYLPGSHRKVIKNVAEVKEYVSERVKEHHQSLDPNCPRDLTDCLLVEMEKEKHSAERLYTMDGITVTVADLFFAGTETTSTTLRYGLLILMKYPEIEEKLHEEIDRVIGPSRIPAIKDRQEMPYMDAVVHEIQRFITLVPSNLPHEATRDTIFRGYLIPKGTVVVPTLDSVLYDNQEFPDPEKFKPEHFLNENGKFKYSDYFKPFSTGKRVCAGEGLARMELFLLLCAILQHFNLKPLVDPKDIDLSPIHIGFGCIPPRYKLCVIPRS
# Cytochrome P450 2D6, sequence (P10635 whole entry, the tested form may be a part): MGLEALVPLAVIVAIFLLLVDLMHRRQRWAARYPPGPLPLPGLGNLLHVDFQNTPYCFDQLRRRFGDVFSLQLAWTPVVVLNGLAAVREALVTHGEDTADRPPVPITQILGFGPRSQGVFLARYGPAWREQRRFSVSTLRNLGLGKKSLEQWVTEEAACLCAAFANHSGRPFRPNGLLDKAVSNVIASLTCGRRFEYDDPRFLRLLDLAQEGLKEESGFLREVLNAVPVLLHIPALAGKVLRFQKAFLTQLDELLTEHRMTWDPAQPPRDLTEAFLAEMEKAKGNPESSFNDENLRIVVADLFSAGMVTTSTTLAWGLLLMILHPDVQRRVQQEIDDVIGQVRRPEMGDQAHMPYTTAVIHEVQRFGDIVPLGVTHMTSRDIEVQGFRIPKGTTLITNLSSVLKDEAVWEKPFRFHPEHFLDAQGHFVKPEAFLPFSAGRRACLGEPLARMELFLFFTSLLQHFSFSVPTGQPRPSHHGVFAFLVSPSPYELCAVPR
# hERG (KCNH2), sequence (Q12809 whole entry): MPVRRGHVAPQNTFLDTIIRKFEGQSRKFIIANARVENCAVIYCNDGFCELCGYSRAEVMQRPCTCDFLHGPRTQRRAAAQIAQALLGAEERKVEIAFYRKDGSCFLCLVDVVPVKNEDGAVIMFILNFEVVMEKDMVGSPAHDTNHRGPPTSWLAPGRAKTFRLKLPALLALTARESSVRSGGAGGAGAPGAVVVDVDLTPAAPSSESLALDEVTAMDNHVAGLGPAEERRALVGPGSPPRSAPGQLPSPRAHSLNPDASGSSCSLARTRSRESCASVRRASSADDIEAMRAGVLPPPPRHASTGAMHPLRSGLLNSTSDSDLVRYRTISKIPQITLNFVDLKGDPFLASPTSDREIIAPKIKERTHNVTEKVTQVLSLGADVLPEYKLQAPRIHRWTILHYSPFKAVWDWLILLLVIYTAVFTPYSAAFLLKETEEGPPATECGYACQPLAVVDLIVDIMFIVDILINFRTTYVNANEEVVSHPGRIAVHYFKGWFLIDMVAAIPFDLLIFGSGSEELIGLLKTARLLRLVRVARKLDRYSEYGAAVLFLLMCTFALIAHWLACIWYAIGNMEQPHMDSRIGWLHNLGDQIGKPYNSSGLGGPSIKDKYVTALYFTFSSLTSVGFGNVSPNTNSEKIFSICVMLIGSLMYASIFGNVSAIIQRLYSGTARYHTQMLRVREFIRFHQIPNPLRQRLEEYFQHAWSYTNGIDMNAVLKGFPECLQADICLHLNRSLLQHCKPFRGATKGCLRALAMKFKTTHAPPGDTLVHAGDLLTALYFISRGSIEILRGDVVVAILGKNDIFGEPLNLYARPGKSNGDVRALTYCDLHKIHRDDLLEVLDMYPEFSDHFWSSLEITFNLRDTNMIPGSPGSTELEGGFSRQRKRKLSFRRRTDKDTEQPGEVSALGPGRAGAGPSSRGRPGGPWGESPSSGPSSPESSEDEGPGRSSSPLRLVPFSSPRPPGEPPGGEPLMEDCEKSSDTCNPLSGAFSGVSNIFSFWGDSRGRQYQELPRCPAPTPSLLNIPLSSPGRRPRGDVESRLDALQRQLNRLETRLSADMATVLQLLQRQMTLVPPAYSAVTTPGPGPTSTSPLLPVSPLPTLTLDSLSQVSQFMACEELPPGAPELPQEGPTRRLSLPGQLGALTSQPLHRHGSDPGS
# Cytochrome P450 3A4, sequence (P08684 whole entry): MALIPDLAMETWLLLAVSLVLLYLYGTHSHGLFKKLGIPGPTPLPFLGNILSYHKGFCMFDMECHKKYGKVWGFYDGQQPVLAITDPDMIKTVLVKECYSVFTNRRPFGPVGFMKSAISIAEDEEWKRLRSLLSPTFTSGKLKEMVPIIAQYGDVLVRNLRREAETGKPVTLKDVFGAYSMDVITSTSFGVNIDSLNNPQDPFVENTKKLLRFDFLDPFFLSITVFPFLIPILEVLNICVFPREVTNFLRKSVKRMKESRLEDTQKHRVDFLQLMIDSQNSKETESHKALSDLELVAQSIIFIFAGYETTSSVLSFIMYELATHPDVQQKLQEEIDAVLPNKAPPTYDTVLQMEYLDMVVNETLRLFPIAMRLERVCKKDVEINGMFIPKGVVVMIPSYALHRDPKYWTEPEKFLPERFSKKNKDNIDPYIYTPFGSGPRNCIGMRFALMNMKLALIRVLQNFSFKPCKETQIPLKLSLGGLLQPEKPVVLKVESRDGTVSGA
structure (smiles),measurement,setting,value
COCCCOc1cc(C[C@@H](C[C@H](N)[C@@H](O)C[C@H](C(=O)NCC([14CH3])([14CH3])C(N)=O)C(C)C)C(C)C)ccc1OC.O=C(O)/C=C/C(=O)O,ECG,[1],OUTCOME = ECG findings were all considered as normal
same,Radiolabel recovery,[2],84%
same,Radiolabel recovery,[3],73%
same,Radiolabel recovery,[4],10%
same,Radiolabel recovery,[5],7.51%
same,Radiolabel recovery,[6],0.34%
same,Radiolabel recovery,[7],1.98%
same,Cmax,[8],0.416 µM
same,Cmax,"[8]; iv, 10 mg/kg",21.2 µM
same,Cmax normalised,[9],0.0042 (umol/L)/(mg/kg)
same,Cmax normalised,"[9]; iv, 10 mg/kg",2.12 (umol/L)/(mg/kg)
same,Activity,Cytochrome P450 2D6,"OUTCOME = Observed, VALUE = CYP2D6 contributed to a minor extent on metabolism of aliskiren"
same,Radiolabel recovery,[10],4%
same,AUC normalised,[11],0.054 (umol.h/L)/(mg/kg)
same,AUC normalised,"[11]; iv, 10 mg/kg",0.81 (umol.h/L)/(mg/kg)
same,Radiolabel recovery,[12],OUTCOME = Observed/Elimination of radioactivity was mainly via biliary route
same,Radiolabel recovery,[13],0.17%
same,CL,Cytochrome P450 3A4,1013.1 µL·min/nmol
same,Radiolabel recovery,[14],40.2%
same,Radiolabel recovery,[15],0.01%
same,Radiolabel recovery,[16],"OUTCOME = Observed, VALUE = Highest radioactivity concentration was observed"
same,Radiolabel recovery,[17],OUTCOME = Detected
COCCCOc1cc(C[C@@H](C[C@H](N)[C@@H](O)C[C@H](C(=O)NCC(C)(C)C(N)=O)C(C)C)C(C)C)ccc1OC.COCCCOc1cc(C[C@@H](C[C@H](N)[C@@H](O)C[C@H](C(=O)NCC(C)(C)C(N)=O)C(C)C)C(C)C)ccc1OC.O=C(O)/C=C/C(=O)O [ALISKIREN FUMARATE],inhibition at 100 µM,hERG (KCNH2),6%
same,BUN_CHANGE_BY,[18],274%
same,BUN_CHANGE_BY,[19],401%
same,Cmax,[20],9670 ng/mL
same,Cmax,[21],10600 ng/mL
same,Cmax normalised,[22],0.396 (ug/ml)/(mg/kg)
same,Cmax normalised,[23],0.577 (ug/ml)/(mg/kg)
same,AUC normalised,[24],1.26 (umol.h/L)/(mg/kg)
same,AUC(0-t) at 24 h,[25],7720 ng·h/mL
same,Tmax,[26],1 h
same,AUC at 24 h,[27],109000 ng·h/mL
same,AUC at 168 h,[28],4.55 µM·h
COCCCOc1cc(C[C@@H](C[C@H](N)[C@@H](O)C[C@H](C(=O)NCC(C)(C)C(N)=O)C(C)C)C(C)C)ccc1OC,Compound recovery,[29],60.4%
same,inhibition at 200 µM,CYP2E1,-12.8%
